Assay [1] addresses T1, Estrogen receptor beta (Homo sapiens, UniProt Q92731).
For assay [2], the target named is T2, Estrogen receptor (Homo sapiens, UniProt P03372).
T2 sequence (P03372 whole entry): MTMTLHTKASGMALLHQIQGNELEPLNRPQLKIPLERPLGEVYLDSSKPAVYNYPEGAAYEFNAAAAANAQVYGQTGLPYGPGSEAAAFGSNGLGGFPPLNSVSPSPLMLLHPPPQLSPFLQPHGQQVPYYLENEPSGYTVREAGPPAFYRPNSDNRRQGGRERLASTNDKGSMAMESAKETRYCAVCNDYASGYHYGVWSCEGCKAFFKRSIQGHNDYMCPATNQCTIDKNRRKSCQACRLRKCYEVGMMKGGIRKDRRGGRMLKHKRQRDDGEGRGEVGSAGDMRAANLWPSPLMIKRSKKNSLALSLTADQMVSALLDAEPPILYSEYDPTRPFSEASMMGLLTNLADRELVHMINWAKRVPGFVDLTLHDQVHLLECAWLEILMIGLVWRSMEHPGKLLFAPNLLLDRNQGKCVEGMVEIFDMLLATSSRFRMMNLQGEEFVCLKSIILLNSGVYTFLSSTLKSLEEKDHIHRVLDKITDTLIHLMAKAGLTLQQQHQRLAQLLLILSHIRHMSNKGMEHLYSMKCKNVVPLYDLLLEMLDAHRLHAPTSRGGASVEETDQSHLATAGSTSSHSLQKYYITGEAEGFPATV

Assay [3] concerns the target T1, Estrogen receptor beta. This is another data set of the same source.
Assay [4] has as its target T2, Estrogen receptor. The source holds these as a separate data set.

T1 sequence (Q92731 whole entry): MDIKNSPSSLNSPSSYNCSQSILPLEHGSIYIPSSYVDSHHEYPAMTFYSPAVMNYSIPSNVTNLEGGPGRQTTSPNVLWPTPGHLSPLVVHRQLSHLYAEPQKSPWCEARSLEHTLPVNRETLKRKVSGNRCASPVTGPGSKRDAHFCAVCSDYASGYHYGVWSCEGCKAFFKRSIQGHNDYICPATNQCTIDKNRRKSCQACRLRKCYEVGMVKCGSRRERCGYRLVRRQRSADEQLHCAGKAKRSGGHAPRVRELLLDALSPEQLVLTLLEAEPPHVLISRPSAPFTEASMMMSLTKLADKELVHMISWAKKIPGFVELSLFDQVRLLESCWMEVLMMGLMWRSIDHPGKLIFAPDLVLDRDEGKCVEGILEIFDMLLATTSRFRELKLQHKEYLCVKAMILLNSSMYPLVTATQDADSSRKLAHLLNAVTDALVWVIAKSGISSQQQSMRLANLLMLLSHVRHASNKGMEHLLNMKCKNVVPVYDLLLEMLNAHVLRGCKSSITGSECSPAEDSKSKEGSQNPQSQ

In the case of `CC[C@H](C)C1=CC[C@H]2[C@@H]3CCc4cc(O)ccc4[C@H]3CC[C@]12C`, the IC50 against Estrogen receptor beta [1] came to 70 nM; on Estrogen receptor beta [3] it was 88 nM. The molecule also yielded a Kd on Estrogen receptor [2] of 160 nM.
On Estrogen receptor [2], `OC[C@H]1CCC[C@@H](c2ccc(O)cc2)CC1` (racemic) showed a Kd of over 1000 nM.
Regarding `CCCOC(=O)[C@H]1CC[C@H]2[C@@H]3CCc4cc(O)ccc4[C@H]3CC[C@]12C`, on Estrogen receptor [2], the Kd came to 320 nM. Also, the IC50 against Estrogen receptor [4] is 92 nM.
As to `C[C@@H](CCO)C1=CC[C@H]2[C@@H]3CCc4cc(O)ccc4[C@H]3CC[C@]12C`, the IC50 turned out to be 275 nM on Estrogen receptor beta [1] and 108 nM against Estrogen receptor beta [3]. Moreover, the Kd on Estrogen receptor [2] worked out at 320 nM.
`CC1C[C@H](C)C2(CC[C@H]3[C@@H]4CCc5cc(O)ccc5[C@H]4CC[C@@]32C)O1` (stereo partly drawn) displayed a Kd on Estrogen receptor [2] of 160 nM. The values for the IC50 at Estrogen receptor beta [3] and against Estrogen receptor [4] were 111 nM and 484 nM, respectively.
On to `C[C@]12CC[C@@H]3c4ccc(O)cc4CC[C@H]3[C@@H]1CC=C2CO`, for which half-maximal inhibition against Estrogen receptor beta [3] (IC50) required 6.8 nM.
